Experimental data taken from patent US20260176265A1 (Cancer Research Technology Limited, priority 2022, published 2026).

Tests used:
[1] = biological target: T1, Phospho-EGFR (Tyr1068) in H1975 C797S cells (Homo sapiens, UniProt P00533, C797S/L858R/T790M); assay: HTRF pEGFR/total EGFR assay in H1975 C797S cells; type: cell-based; conditions: H1975 C797S cells (CRISPR), compound 3 hours, ratio pEGFR/total EGFR
T1 construct: endogenous in cells; host or cells: H1975 C797S (CRISPR-edited in house from ATCC CRL-5908)
T1 sequence (P00533 25-1210 T790M/C797S/L858R): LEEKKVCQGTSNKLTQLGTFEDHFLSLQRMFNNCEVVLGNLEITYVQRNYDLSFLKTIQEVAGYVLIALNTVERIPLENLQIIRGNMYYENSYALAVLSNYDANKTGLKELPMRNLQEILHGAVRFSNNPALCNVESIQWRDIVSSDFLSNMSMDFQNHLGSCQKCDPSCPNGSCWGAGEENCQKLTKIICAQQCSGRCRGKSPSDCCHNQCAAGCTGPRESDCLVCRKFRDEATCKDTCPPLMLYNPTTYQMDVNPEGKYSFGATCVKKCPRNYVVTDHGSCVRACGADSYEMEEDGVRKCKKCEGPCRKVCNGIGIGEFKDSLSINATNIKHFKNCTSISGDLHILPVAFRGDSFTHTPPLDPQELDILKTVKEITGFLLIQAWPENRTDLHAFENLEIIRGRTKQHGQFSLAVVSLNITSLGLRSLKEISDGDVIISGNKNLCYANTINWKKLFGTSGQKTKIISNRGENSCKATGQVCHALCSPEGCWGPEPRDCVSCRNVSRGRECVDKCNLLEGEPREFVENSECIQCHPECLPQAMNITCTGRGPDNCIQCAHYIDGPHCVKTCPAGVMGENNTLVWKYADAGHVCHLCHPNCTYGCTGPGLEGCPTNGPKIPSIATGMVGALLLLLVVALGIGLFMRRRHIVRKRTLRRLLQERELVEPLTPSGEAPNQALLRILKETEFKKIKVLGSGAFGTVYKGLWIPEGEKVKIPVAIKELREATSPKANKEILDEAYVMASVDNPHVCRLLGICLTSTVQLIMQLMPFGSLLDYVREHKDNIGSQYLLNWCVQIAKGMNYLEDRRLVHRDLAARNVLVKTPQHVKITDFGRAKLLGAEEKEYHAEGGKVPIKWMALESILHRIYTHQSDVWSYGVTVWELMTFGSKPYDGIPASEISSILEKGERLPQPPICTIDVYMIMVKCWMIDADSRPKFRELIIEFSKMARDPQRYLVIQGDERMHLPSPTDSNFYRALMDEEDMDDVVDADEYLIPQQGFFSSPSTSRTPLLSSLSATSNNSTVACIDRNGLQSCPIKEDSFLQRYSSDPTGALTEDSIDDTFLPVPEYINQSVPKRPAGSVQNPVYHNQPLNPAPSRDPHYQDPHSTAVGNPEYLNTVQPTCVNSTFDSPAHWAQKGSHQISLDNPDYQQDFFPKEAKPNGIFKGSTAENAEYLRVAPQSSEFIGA
Method: H1975 C797S cells (ATCC CRL-5908) were genetically engineered by CRISPR editing of EGFR C797S in house and validated by NGS. Cells were plated at 20,000 cells per well in 96 well plates and placed at 37° C. 5% CO2. Once adhered (after 24h) cells were treated with compounds dissolved in DMSO at a final concentration of 0.1% DMSO in media. Compounds were diluted in media then added to cells for 3 hours in duplicate. Compound and media were removed from the cells, then 50 ul of HTRF lysis buffer was added (lysis buffer was diluted from 4× stock to 1× in DI water, with 1% blocking agent also added). Cells were lysed on a plate shaker (2000 rpm) for 30 minutes at room temperature. pEGFR expression was monitored using the Cisbio Phospho-EGFR (Tyr1068) cellular kit (64EG1PEH). Total EGFR expression was monitored using the Cisbio Total EGFR cellular kit (64NG1PEH) as per manufacturer's instructions. Fluorescence emission was read at two different wavelengths (665 nm and 620 nm) on a PheraStar. Results were calculated as ratio of pEGFR/total EGFR and then percentage of 0 uM control.

[2] = biological target: T2, Phospho-EGFR (Tyr1068) in A431 cells (Homo sapiens, UniProt P00533); assay: HTRF pEGFR/total EGFR assay in A431 cells (EGF stimulated); type: cell-based; conditions: compound 2.5 hours then 100 ng/ml EGF 30 mins, ratio pEGFR/total EGFR
T2 construct: endogenous in cells; host or cells: A431
Method: Cells were plated at 20,000 cells per well in 96 well plates and placed at 37° C. 5% CO2. Once adhered (after 24h) cells were treated with compounds dissolved in DMSO at a final concentration of 0.1% DMSO in media. Compounds were diluted in media then added to cells for 2.5 hours in duplicate, 100 ng/ml EGF (ThermoFisher, PHG0311 was is added to all compound treated cells as well as a control for 30 mins. Compound and media were removed from the cells, then 50ul of HTRF lysis bufferwas added (lysis bufferwas diluted from 4× stock to 1× in DI water, with 1% blocking agent also added). Cells were lysed on a plate shaker (2000 rpm) for 30 minutes at room temperature. pEGFR expression was monitored using the Cisbio Phospho-EGFR (Tyr1068) cellular kit (64EG1PEH). Total EGFR expression was monitored using the Cisbio Total EGFR cellular kit (64NG1PEH) as per manufacturer's instructions. Fluorescence emission was read at two different wavelengths (665 nm and 620 nm) on a PheraStar. Results were calculated as ratio of pEGFR/total EGFR and then percentage of OuM control.

[3] = biological target: T3, Phospho-EGFR (Tyr1068) in H1975 cells (Homo sapiens, UniProt P00533, L858R/T790M); assay: HTRF pEGFR/total EGFR assay in H1975 cells; type: cell-based; conditions: compound 3 hours, ratio pEGFR/total EGFR
T3 construct: host or cells: H1975
T3 sequence (P00533 25-1210 T790M/L858R): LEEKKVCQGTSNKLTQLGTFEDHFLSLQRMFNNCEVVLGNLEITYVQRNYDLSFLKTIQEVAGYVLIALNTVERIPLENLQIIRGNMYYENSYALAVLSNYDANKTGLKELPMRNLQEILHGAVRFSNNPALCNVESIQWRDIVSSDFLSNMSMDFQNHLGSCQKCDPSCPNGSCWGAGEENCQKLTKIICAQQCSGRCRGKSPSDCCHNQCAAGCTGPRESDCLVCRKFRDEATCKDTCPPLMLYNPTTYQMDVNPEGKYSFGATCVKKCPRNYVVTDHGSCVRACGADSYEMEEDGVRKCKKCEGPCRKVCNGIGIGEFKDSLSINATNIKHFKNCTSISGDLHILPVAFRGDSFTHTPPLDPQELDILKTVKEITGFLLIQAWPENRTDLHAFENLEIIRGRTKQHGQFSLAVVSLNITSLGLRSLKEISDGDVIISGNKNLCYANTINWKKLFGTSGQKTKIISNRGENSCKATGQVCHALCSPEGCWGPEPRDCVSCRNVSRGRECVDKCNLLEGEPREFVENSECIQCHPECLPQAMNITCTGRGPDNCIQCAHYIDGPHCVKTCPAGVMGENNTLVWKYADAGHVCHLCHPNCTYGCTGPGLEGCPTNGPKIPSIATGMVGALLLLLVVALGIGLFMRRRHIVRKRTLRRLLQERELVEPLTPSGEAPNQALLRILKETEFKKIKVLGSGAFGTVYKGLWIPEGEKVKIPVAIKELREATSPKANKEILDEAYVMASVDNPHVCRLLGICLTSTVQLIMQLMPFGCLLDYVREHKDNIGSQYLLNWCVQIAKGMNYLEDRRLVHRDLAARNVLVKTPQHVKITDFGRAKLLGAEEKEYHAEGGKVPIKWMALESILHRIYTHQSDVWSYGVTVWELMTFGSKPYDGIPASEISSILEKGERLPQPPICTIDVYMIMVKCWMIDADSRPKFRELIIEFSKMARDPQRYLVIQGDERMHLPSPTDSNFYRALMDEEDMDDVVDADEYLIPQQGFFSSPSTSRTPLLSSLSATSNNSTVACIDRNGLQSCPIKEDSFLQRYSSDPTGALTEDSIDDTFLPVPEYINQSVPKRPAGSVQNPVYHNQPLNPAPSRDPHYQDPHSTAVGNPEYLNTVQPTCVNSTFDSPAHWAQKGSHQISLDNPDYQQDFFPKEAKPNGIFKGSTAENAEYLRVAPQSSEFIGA
Method: H1975 cells (ATCC CRL-5908) were plated at 20,000 cells per well in 96 well plates and placed at 37° C. 5% CO2. Once adhered (after 24h) cells were treated with compounds dissolved in DMSO at a final concentration of 0.1% DMSO in media. Compounds were diluted in media then added to cells for 3 hours in duplicate. Compound and media were removed from the cells, then 50ul of HTRF lysis buffer is added (lysis buffer was diluted from 4× stock to 1× in DI water, with 1% blocking agent also added). Cells were lysed on a plate shaker (2000 rpm) for 30 minutes at room temperature. pEGFR expression was monitored using the Cisbio Phospho-EGFR (Tyri068) cellular kit (64EG1 PEH). Total EGFR expression was monitored using the Cisbio Total EGFR cellular kit (64NG1 PEH) as per manufacturer's instructions. Fluorescence emission was read at two different wavelengths (665 nm and 620 nm) on a PheraStar. Results were calculated as ratio of pEGFR/total EGFR and then percentage of 0 uM control.

[4] = biological target: CtermHisTag-mEGFR Wild type (Homo sapiens, UniProt P00533); assay: TR-FRET probe displacement assay, EGFR wild type; type: binding; conditions: EGFR wild type 1.25 nM, probe 100 nM, 30 mins room temperature
CtermHisTag-mEGFR Wild type, sequence (P00533 25-1210): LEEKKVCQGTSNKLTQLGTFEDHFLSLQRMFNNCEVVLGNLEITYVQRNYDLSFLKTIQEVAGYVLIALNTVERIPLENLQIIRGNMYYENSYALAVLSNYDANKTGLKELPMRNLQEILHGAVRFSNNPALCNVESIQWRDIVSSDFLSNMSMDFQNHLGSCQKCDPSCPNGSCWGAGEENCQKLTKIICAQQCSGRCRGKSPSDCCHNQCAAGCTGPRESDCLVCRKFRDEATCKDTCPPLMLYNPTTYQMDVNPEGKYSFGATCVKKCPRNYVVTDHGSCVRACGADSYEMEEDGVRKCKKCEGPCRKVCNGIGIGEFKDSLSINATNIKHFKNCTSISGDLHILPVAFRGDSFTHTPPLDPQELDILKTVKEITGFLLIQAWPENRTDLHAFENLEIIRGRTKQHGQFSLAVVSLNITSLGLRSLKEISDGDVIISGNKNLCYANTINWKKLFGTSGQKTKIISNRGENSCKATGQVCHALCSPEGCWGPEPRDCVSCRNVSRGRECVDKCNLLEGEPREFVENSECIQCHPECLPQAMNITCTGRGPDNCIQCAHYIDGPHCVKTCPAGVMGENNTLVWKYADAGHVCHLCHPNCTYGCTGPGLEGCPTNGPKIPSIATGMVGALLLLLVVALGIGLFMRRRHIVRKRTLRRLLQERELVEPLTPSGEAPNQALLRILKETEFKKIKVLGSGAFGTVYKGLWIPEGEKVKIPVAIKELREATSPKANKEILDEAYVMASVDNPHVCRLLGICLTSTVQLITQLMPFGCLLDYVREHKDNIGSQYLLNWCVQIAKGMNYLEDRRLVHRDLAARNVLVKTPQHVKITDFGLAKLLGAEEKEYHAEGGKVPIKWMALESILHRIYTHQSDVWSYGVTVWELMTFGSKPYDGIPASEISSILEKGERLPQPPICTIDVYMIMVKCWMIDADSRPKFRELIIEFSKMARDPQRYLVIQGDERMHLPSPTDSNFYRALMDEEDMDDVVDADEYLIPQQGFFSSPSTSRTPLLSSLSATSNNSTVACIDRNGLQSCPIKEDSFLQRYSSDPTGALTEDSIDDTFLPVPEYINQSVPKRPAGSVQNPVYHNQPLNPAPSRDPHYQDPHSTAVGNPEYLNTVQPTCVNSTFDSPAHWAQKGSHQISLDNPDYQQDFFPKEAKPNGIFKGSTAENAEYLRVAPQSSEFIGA
Method: (§1) Compounds (dissolved to 100 mM in DMSO) were dispensed into black low volume 384 well assay plates (Corning) over a final concentration range of 100000, 30000, 10000, 3000, 1000, 300, 100, 30, 10, and 3 nM using an Echo 550 (Labcyte). Positive control compound and DMSO as a negative control were dispensed into the first and last well, respectively. […]. Plates were read using a PheraStar FS (BMG Labtech) at Ex337 nm Ex490/520 nm. The data were analysed using Graphpad Prism/Dotmatics Studies Software. Assays conducted in technical replicate and repeated as a biological duplicate.

[5] = biological target: CtermHisTag-mEGFR Triple Mutant - C797S, L858R, T790M (Homo sapiens, UniProt P00533, C797S/L858R/T790M); assay: TR-FRET probe displacement assay, EGFR triple mutant; type: binding; conditions: T790M 1.25 nM, probe 100 nM, 30 mins room temperature
CtermHisTag-mEGFR Triple Mutant - C797S, L858R, T790M, sequence (P00533 25-1210 T790M/C797S/L858R): as the sequence (P00533 25-1210 T790M/C797S/L858R) above
Method: as §1

| SMILES | IC50 [1] [µM] | IC50 [2] [µM] | IC50 [3] [µM] | IC50 [4] [µM] | IC50 [5] [µM] |
| --- | --- | --- | --- | --- | --- |
| C#Cc1cc(Nc2ccccc2)nc2nc(Nc3ccc(N(C)CCN(C)C)cc3)ncc12 [Example 25, N^2-(4-{[2-(dimethylamino)ethyl](methyl)amino}phenyl)-5-ethynyl-N^7-phenylpyrido[2,3-d]pyrimidine-2,7-diamine] | > 3 | > 3 | > 3 | > 10 | 1 to 50 |
| C#Cc1cc(Nc2nccn2C2CCCC2)nc2nc(Nc3ccc(N4CCN(C)CC4)cc3)ncc12 [Example 27, N^7-(1-cyclopentylmidazol-2-yl)-5-ethynyl-N^2-[4-(4-methylpiperazin-1-yl)phenyl]pyrido[2,3-d]pyrimidine-2,7-diamine] | > 3 | > 3 | 1 to 3 | < 1 | 0.02 to 0.1 |
| C#Cc1cc(NC(C)=O)nc2nc(Nc3ccc(N(C)CCN(C)C)cc3)ncc12 [Example 28] | > 3 | > 3 | > 3 | > 10 | < 0.02 |
| C#Cc1cc(NC(=O)c2ccccc2)nc2nc(Nc3ccc(N4CCN(C)CC4)cc3)ncc12 [Example 29, N-(5-ethynyl-2-{[4-(4-methylpiperazin-1-yl)phenyl]amino}pyrido[2,3-d]pyrimidin-7-yl)benzamide] | > 3 | > 3 | > 3 | 1 to 10 | 0.02 to 0.1 |
| C#Cc1cc(NS(C)(=O)=O)nc2c1=CNC(Nc1ccc(N(C)CCN(C)C)cc1)N=2 (stereo not drawn) [Example 33] | > 3 | > 3 | > 3 | > 10 | 0.02 to 0.1 |
| C#Cc1cc(-n2ccnc2)nc2nc(Nc3ccc(N4CCN(C)CC4)cc3)ncc12 [Example 35, 5-ethynyl-7-(imidazol-1-yl)-N-[4-(4-methylpiperazin-1-yl)phenyl]pyrido[2,3-d]pyrimidin-2-amine] | > 3 | > 3 | 1 to 3 | < 1 | < 0.02 |
| C#Cc1cc(-n2cccc2)nc2nc(Nc3ccc(N4CCN(C)CC4)cc3)ncc12 [Example 36, 5-ethynyl-N-[4-(4-methylpiperazin-1-yl)phenyl]-7-(pyrrol-1-yl)pyrido[2,3-d]pyrimidin-2-amine] | > 3 | > 3 | 1 to 3 | 1 to 10 | < 0.02 |
| C#Cc1cc(NC(=O)N(C)C)nc2nc(Nc3ccc(N4CCN(C)CC4)cc3)ncc12 [Example 37, 1-(5-ethynyl-2-{[4-(4-methylpiperazin-1-yl)phenyl]amino}pyrido[2,3-d]pyrimidin-7-yl)-3,3-dimethylurea] | > 3 | > 3 | > 3 | > 10 | 0.1 to 1 |

Second part, the compound after the results:

| IC50 [1] [µM] | IC50 [2] [µM] | IC50 [3] [µM] | IC50 [4] [µM] | IC50 [5] [µM] | SMILES |
| --- | --- | --- | --- | --- | --- |
| > 3 | > 3 | > 3 | > 10 | 0.1 to 1 | C#Cc1c(C)c(OCC2CCCC2)nc2nc(Nc3ccc(N4CCN(C)CC4)cc3)ncc12 [Example 23, 7-(cyclopentylmethoxy)-5-ethynyl-6-methyl-N-[4-(4-methylpiperazin-1-yl)phenyl]pyrido[2,3-d]pyrimidin-2-amine] |
| > 3 | > 3 | > 3 | > 10 | 1 to 50 | C#Cc1cc(N(C)C)nc2nc(Nc3ccc(N(C)CCN(C)C)cc3)ncc12 [Example 24, N^2-(4-{[2-(dimethylamino)ethyl](methyl)amino}phenyl)-5-ethynyl-N^7,N^7-dimethylpyrido[2,3-d]pyrimidine-2,7-diamine] |
| 1 to 3 | > 3 | 0.5 to 1 | 1 to 10 | 0.02 to 0.1 | C#Cc1cc(Nc2nccn2C)nc2nc(Nc3ccc(N4CCN(C)CC4)cc3)ncc12 [Example 26, 5-ethynyl-N^7-(1-methylmidazol-2-yl)-N^2-[4-(4-methylpiperazin-1-yl)phenyl]pyrido[2,3-d]pyrimidine-2,7-diamine] |
| 1 to 3 | > 3 | 1 to 3 | 1 to 10 | < 0.02 | C#Cc1cc(NC(=O)Cc2ccccc2)nc2nc(Nc3ccc(N4CCN(C)CC4)cc3)ncc12 [Example 30, N-(5-ethynyl-2-{[4-(4-methylpiperazin-1-yl)phenyl]amino}pyrido[2,3-d]pyrimidin-7-yl)-2-phenylacetamide] |
| 1 to 3 | > 3 | 1 to 3 | 1 to 10 | < 0.02 | C#Cc1cc(N2CCCC2=O)nc2nc(Nc3ccc(N4CCN(C)CC4)cc3)ncc12 [Example 31, 1-(5-ethynyl-2-{[4-(4-methylpiperazin-1-yl)phenyl]amino}pyrido[2,3-d]pyrimidin-7-yl)pyrrolidin-2-one] |
| 1 to 3 | > 3 | 1 to 3 | 1 to 10 | < 0.02 | C#Cc1cc(NC(=O)CCc2ccccc2)nc2nc(Nc3ccc(N4CCN(C)CC4)cc3)ncc12 [Example 32, N-(5-ethynyl-2-{[4-(4-methylpiperazin-1-yl)phenyl]amino}pyrido[2,3-d]pyrimidin-7-yl)-3-phenylpropanamide] |
| 1 to 3 | > 3 | > 3 | 1 to 10 | < 0.02 | C#Cc1cc(-n2cc(C)cn2)nc2nc(Nc3ccc(N(C)CCN(C)C)cc3)ncc12 [Example 34, N^1-[2-(dimethylamino)ethyl]-N^4-[5-ethynyl-7-(4-methylpyrazol-1-yl)pyrido[2,3-d]pyrimidin-2-yl]-N^1-methylbenzene-1,4-diamine] |
| < 0.5 | < 0.5 | < 0.5 | < 1 | < 0.02 | C#Cc1cc(NC(=O)NC2CCCC2)nc2nc(Nc3ccc(N4CCN(C)CC4)cc3)ncc12 [Example 38, 1-cyclopentyl-3-(5-ethynyl-2-((4-(4-methylpiperazin-1-yl)phenyl)amino)pyrido[2,3-d]pyrimidin-7-yl)urea] |
| < 0.5 | > 3 | < 0.5 | < 1 | < 0.02 | C#Cc1cc(NC(=O)NCc2ccccc2)nc2nc(Nc3ccc(N4CCN(C)CC4)cc3)ncc12 [Example 39, 1-benzyl-3-(5-ethynyl-2-{[4-(4-methylpiperazin-1-yl)phenyl]amino}pyrido[2,3-d]pyrimidin-7-yl)urea] |
| < 0.5 | > 3 | < 0.5 | < 1 | < 0.02 | C#Cc1cc(NC(=O)NCC2CCCC2)nc2nc(Nc3ccc(N4CCN(C)CC4)cc3)ncc12 [Example 40, 3-(cyclopentylmethyl)-1-(5-ethynyl-2-{[4-(4-methylpiperazin-1-yl)phenyl]amino}pyrido[2,3-d]pyrimidin-7-yl)urea] |
